This is an account of results in patent publication US8754047B2, “Peptide compositions and methods of use” (The Research Foundation for the State University of New York, priority 2008, dated 2014).

Each structure is given as a SMILES string. Entries after “also recorded” stand apart in the source; their conditions may differ. Positions of bridges follow the written chain, without caps; N, C: chain ends. Residues, ends and D or L forms follow the SMILES beside them.

Assay [1] concerns SW480 human colon cancer cells. As to the kind of experiment: In vitro cell viability assay by MTT / cell Titer-Glo, SW480. As to conditions: 24 h. On the procedure:
10,000 HT29 or SW480 human colon cancer cells, BxPC-3 human pancreatic cancer cells, and MCF7 and MDA-MB-231 breast cancer cells were obtained from American Type Culture Collection (ATTC), Manassas, Va., and were seeded in separate 96-well plates. After treatment with various concentrations (6.25 μM, 12.5 μM, 25 μM, 50 μM, 100 μM, or 200 μM) of test peptide for 24 h, cells were stained with MTT (3-(4,5-Dimethyl-2-thiazolyl)-2,5-diphenyl-2H-tetrazolium bromide, from Sigma-Aldrich) following the instructions of the manufacturer. Before dissolving MTT in SDS, the HT29 and SW480 cells were photographed using a digital camera connected with a phase-contrast microscope. (FIG. 2A1-8, and FIG. 2B1-6). Cells that are alive convert MTT into formazan in their active mitochondria and appear dark purple; dead cells are not stained by MTT and appear colorless.
The IC50 is the concentration of the test agent that inhibits cell growth by 50% at 24 hours of exposure. IC50s were determined using the MTT assay or using the cell Titer-Glo method and following the instructions of the manufacturer ([…]). […] (Sun, Y., and Rigas, B., (2008), Cancer Res., 68(20): 8269-8277).
The effect of peptide YJB02 on SW480 colon cancer cells was compared to the effect of peptide YJB02 on the normal human colon epithelial cell line NCM460. […] The viability was determined as described in Example 2.
A general note: Cellular ATP, detected with luciferase, serves as a proxy for viable cell number.

A further assay concerns the target T1, thioredoxin 1 (Homo sapiens, UniProt P10599).
T1 construct: endogenous in cells; host or cells: SW480 human colon cancer cells
T1 sequence (P10599 1-105): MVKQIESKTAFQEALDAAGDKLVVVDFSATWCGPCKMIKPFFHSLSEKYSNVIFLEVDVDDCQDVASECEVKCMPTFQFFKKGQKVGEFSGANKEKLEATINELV
The assay is described as follows: Thioredoxin 1 redox state, native PAGE immunoblot in SW480 cells. The assay is classed as cell-based. To be noted: YJB01 20 μM and 100 μM, YJB05 100 μM. On the procedure:
SW480 human colon cancer cells were grown following the instructions of American Type Culture Collection (ATCC, Monassas, Va.). Cells were treated with either no peptide, with YBJ01 (at 20 μM and 100 μM), or with YBJ05 (at 100 μM). 10^6 cells were lysed in 6 mol/L guanidinium chloride, 50 mmol/L Tris/HCL (pH 8.3), 3 mmol/L EDTA, and 0.5% Triton-X-100 containing 50 mmol/L iodoacetic acid. After 30 min at 37° C., the excess idoacetic acid was removed using Microspin G-25 columns (GE Healthcare Life Sciences). Oxidized and reduced thioredxoin was separated by native PAGE. The gel was electroblotted onto a nitrocellulose membrane and probed with thioredoxin antibodies, followed by HRP-conjugated secondary antibody. Bands corresponding to thioredoxin were visualized by ECL.
SW480 human colon cancer cells were grown following the instructions of American Type Culture Collection (ATCC, Monassas, Va.). Cells were treated with either no peptide, with YBJ01 (at 20 μM and 100 μM), or with YBJ05 (at 100 μM). 10^6 cells from each sample were lysed in 6 mol/L guanidinium chloride, 50 mmol/L Tris/HCL (pH 8.3), 3 mmol/L EDTA, and 0.5% Triton-X-100 containing 50 mmol/L iodoacetic acid. After 30 min at 37° C., the excess idoacetic acid was removed using Microspin G-25 columns (GE Healthcare Life Sciences). Oxidized and reduced thioredxoin was separated by native PAGE. […]
(A western blot detects proteins with antibodies after separation by electrophoresis.)

The subject of assay [2] is SW480 human colon cancer xenografts. As to the kind of experiment: SW480 human colon cancer xenografts in nude mice, tumor volume. Type of assay: in vivo. As to conditions: for reduction in tumor volume: vs vehicle. On the procedure:
Xenografts were generated as described in FIG. 3A-B and Example 3 except where noted. Each animal had two xenografts, one on its right flank and one on the left. In these studies, the effect of two doses of YJB01, 100 μg and 500 μg per animal were evaluated. The doses were administrated intraperitoneally once a day dissolved in phosphate buffered saline (PBS). Control animals were injected with PBS. Tumor volume was determined as described in Example 3. Tumor volume is expressed as mean±SEM.
Xenografts were generated as described in the Example 3 except where noted. Each animal had two xenografts, one on its right flank and one on the left. In these studies, the effect of two doses of YJB01, 100 μg and 500 μg per animal were evaluated. The doses were administrated intraperitoneally once a day dissolved in phosphate buffered saline (PBS). Control animals were injected with PBS. Tumor volume was determined as described in Example 3. Tumor volume is expressed as mean±SEM.
Xenografts were generated as described in the Example 3 except that 8 Balb/c nude mice in each group were used in this experiment. Nude mice bearing SW480 xenografts were treated with 500 μg/day of YJB02 for 19 days. The doses were administrated intraperitoneally once a day dissolved in phosphate buffered saline (PBS). Control animals were treated with PBS.
Tumor volume was determined as described in Example 3. Tumor volume was monitored and graphed as set forth in FIG. 9A, and is expressed as mean±SEM.
A general note: Xenograft models place foreign cells or tissue in a host animal.

Assay [3] relates to HT29 human colon cancer cells. Type of assay: cell-based. To be noted: inhibits cell growth by 50% at 24 hours of exposure; MTT or cell Titer-Glo; read-out: IC50s, HT29. The source says:
(FIG. 2A1-8, and FIG. 2B1-6).

The subject of assay [4] is SW480 human colon cancer cells. The assay is described as follows: Flow cytometry forward/side scatter, proportion of dead cells, SW480. The assay is classed as cell-based. To be noted: 200 μM, 24 hr. As to the method: SW480 human colon cancer cells and MCF7 breast cancer cells were grown following the instructions of American Type Culture Collection (ATCC, Monassas, Va.). The cells were treated with the test peptides (YJB01, YJB05, or YJB06) for 24 hrs at concentrations ranging from 0 μM, to 200 μM and subjected to flow cytometric analysis following standard protocols.
SW480 human colon cancer cells and MCF7 breast cancer cells were grown following the instructions of American Type Culture Collection (ATCC, Monassas, Va.). The cells were treated with the test peptides for 24 hrs at concentrations ranging from 0 μM, to 200 μM and subjected to flow cytometry analysis following standard protocols. […] The circumscribed (gated, outlined) areas in the figure indicate dead cells; dead cells generally have higher density (side scatter) and smaller size (forward scatter) than living cells.

Where [5] appears, read: 500 μg intraperitoneally once a day for 10 days.

For `CC[C@H](C)[C@H](NC(=O)[C@H](CCCCN)NC(=O)[C@@H](NC(=O)[C@H](CCC(N)=O)NC(=O)[C@H](CCCNC(=N)N)NC(=O)[C@@H]1CCCN1C(=O)[C@H](CCCCN)NC(=O)[C@@H]1CSSC[C@H](NC(=O)[C@H](Cc2c[nH]c3ccccc23)NC(=O)[C@@H](NC(=O)[C@H](C)N)[C@@H](C)O)C(=O)NCC(=O)N2CCC[C@H]2C(=O)N1)[C@@H](C)CC)C(=O)N[C@@H](Cc1c[nH]c2ccccc12)C(=O)N[C@@H](Cc1ccccc1)C(=O)N[C@@H](CCC(N)=O)C(=O)N[C@@H](CC(N)=O)C(=O)N[C@@H](CCCNC(=N)N)C(=O)N[C@@H](CCCNC(=N)N)C(=O)N[C@@H](CCSC)C(=O)N[C@@H](CCCCN)C(=O)N[C@@H](Cc1c[nH]c2ccccc12)C(=O)N[C@@H](CCCCN)C(=O)N[C@@H](CCCCN)C(=O)O` [YJB01] (H-ATWCGPCKPRQIKIWFQNRRMKWKK-OH; disulfide 4-7; N-terminus and C-terminus assumed), the IC50 was found to be 34.7 µM in assay [1] and 89 µM in assay [3]. For the same compound, on thioredoxin 1, the “induction of the oxidized form of thioredoxin 1” value is on record as “induces the oxidized form of thioredoxin 1; also recorded: capable of inducing oxidation”. For the same compound, the “reduction in tumor volume” value in assay [2] (100 μg intraperitoneally once a day for 21 days) is on record as 32%; in assay [2] (setting [5]), 60%. The tumor volume in assay [2] (100 μg intraperitoneally once a day for 21 days, vehicle 776 mm^3) is given as 527 mm^3; in assay [2] (500 μg intraperitoneally once a day for 10 days, vehicle 257 mm^3), 102 mm^3. Further, in assay [2] (setting [5]), the “tumor volume compared to its baseline” value is recorded as “caused tumor regression”. In addition, in assay [4], the “dead cells, SW480” value turned out to be 81.19%.
